Source: patent publication US10822317B2, “Methods and compositions for wound healing” (QBiotics Limited, priority 2013, dated 2020)

Legend:
[1] = tested on: immortalised human keratinocyte cells (HaCaT); assay: Scratch repopulation and closure with HaCaT; assay type: cell-based; details: 48 hours; for % of scratch wound area remaining open after treatment: ± standard error
Procedure: The ability of immortalised human keratinocyte cells (HaCaT) to migrate across a scratch wound made in a confluent monolayer following treatment with either Compound 1 or Compound 37 was determined by the following method.
Trypsinised HaCaT cells were seeded at a cell density of 7.4×10^4 cells/mL in 24-well BD Falcon flat-bottomed, tissue culture plates (VWR International, UK) in 1 mL Dulbecco's Modified Eagle Medium (DMEM), supplemented with L-glutamine (2 mM), antibiotics (100 U/mL penicillin G sodium, 100 μg/mL streptomycin sulphate and 0.25 μg/mL amphotericin B); and 10% foetal calf serum (all Invitrogen Ltd., UK) to give a cell density of 7.4×10^4 cells seeded in each well. The cells were then maintained at 37° C. in a 5% CO2/95% air atmosphere overnight. The following morning, the 10% foetal calf serum-containing DMEM was replaced with serum-free DMEM and the HaCaT cells were subsequently serum-starved in DMEM for 48 hr.
After 48 hr, the serum-free DMEM was removed and a single scratch ‘wound’ made with a sterile pipette across each cell layer. Following washing twice in 1 mL PBS, Compound 1- or Compound 37-containing medium (1 mL) was added to each well. This medium consisted of DMEM, supplemented with L-glutamine (2 mM), antibiotics (as above) and 1% foetal calf serum, in addition to Compound 1 or Compound 37 at final concentrations of 0, 0.001, 0.01, 0.1, 1.0, 10 or 100 μg/mL. There were three replicate wells per concentration for each compound.
The HaCaT cultures were maintained at 37° C. in a 5% CO2/95% air atmosphere and the repopulation of the denuded ‘wound’ areas monitored by Time-Lapse Confocal Microscopy (Leica TCS SP5 Confocal Microscope; Leica Microsystems UK Ltd., UK) at 100× magnification, with digital images captured at fixed positions every 20 min over a 48 h period. The digital image sequences were exported and prepared as .avi movie files, using LAS AF Software (Leica Microsystems). The rates of HaCaT wound closure in vitro were quantified using ImageJ Software (ImageJ 1.37v; http://rsb.info.nih.gov/ij/). The data was analysed by One Way Analysis of Variance with post-test Tukey analysis. Each experiment was performed on 3 separate occasions.

HaCaT cells [2] = assay: HaCaT scratch repopulation with Mitomycin C (migration study); assay type: cell-based, human; details: with 1 μg/mL Mitomycin C; 0.001 to 1.0 μg/mL; p<0.05
HaCaT cells [3] = assay: HaCaT proliferation (MTT); assay type: cell-based, human; parameters: dose or concentration left out as unconfirmed; details: 24, 48, 120 and 168 hr; p<0.01
Source text: The proliferation experiment assessed the effects of the two compounds on HaCaT proliferation (as measured by MTT) in the culture system at 4 time periods (24, 48, 120 and 168 hr).

[4] = tested on: TGF-β1-stimulated dermal fibroblasts; assay: Differentiation of adult dermal fibroblasts into myofibroblasts (α-SMA expression); assay type: cell-based, human
Procedure: The effects of Compounds […] and 37 on dermal fibroblast differentiation to myofibroblasts was examined by the extent of α-SMA expression by TGF-βi-stimulated dermal fibroblasts.
Following trypsinization, fibroblasts were seeded in 8-well, Permanoxchamber slides (VWR International) in DMEM medium, containing antibiotics, 2 mM L-glutamine and 10% foetal calf serum (250 μL, all purchased from Invitrogen); at a cell density of 2.5×10^4 cells/well and maintained at 37° C. in 5% CO2/95% air for 48 h.
At 48 hr, fibroblasts were growth-arrested in serum-free DMEM for 48 hr and then replaced with serum-free DMEM (250 μL), containing Compounds 1 or 37 at concentrations of 0, 0.001, 0.01, 0.1, 1.0 and 10.0 μg/mL (3 wells/concentration/compound) and TGF-β1 (10 ng/ml, Peprotech). Fibroblasts were maintained at 37° C. in 5% CO2/95% air for 72 hr.
At 72 hr, chamber slide wells were washed with PBS (×1, 250 μL) and fixed in 4% paraformaldehyde (100 μL/well) for 10 min. The chamber slide wells were then washed again with PBS (×1, 250 μl), treated with 0.1% Triton X-100 in PBS (100 μL, Sigma) for 5 min and re-washed with PBS (×1, 250 μL). Wells were blocked with 1% BSA in PBS (250 μL, Sigma) for 1 h and washed (×3) in 0.1% BSA/PBS.
Wells were incubated with monoclonal mouse anti-human α-SMA, clone 1A4 (1:100, 150 ul, Sigma) at 4° C. overnight, washed (×6) in 0.1% BSA/PBS and incubated with Alexa Fluor 488 goat anti-mouse IgG antibody (1:1000, 250 μL, Invitrogen), at room temperature for 1 h, under darkness. Chamber slides were washed (×6) in 0.1% BSA/PBS and counterstained with Hoescht 33258 solution for 30 min under darkness (1:2000, 250 μL, Sigma). Chamber were subsequently removed for slides and treated with Fluorsave (Santa Cruz) for 10 min under darkness. Slides were viewed by fluorescence microscopy (Leica Microsystem), with digital images being capturedat ×200 magnification. Digital images were processed using HC Image J Software.

CC=C(C)C(=O)OC1C(C)C2(O)C(C(O)C3(CO)OC3C3(O)C(=O)C(C)=CC32)C2C(C)(C)C12OC(=O)C(C)CC (centres unmarked) [Compound 37, 12-tigloyl-13-(2-methylbutanoyl)-5,6-epoxy-4,5,9,12,13,20-hexahydroxy-1-tigliaen-3-one]
% of scratch wound area remaining open after treatment ([1]; 0.001 μg/ml): 4.3 ± 4.1%
% of scratch wound area remaining open after treatment ([1]; 0.01 μg/ml): 0.9 ± 1.5%
% of scratch wound area remaining open after treatment ([1]; 0.1 μg/ml): 2.2 ± 3.4%
% of scratch wound area remaining open after treatment ([1]; 1.0 μg/ml): 30.0 ± 5.3%
% of scratch wound area remaining open after treatment ([1]; 10 μg/ml): 37.1 ± 7.1%
rate of scratch closure compared to the control treatment ([1]; 0.001, 0.01, 0.1 and 1.0 μg/ml, p<0.01): increased
scratch repopulation and closure (migration study) (HaCaT cells [2]): enhanced
proliferation of HaCaT cells (MTT) vs control with no compound (HaCaT cells [3]): increasing proliferation
differentiation of TGF-β1-treated adult dermal fibroblasts into myofibroblasts ([4]; 0.001 to 10.0 μg/mL, 72 hr): affected differentiation into myofibroblasts in a concentration-dependent manner
myofibroblast morphology ([4]; 0.1 to 1.0 μg/mL): subtle alterations in myofibroblast morphology
α-SMA stress fibre formation and polygonal morphology development ([4]; TGF-β1 10 ng/ml, 72 hr, 10 μg/mL): disruptive effect on α-SMA stress fibre formation and polygonal morphology development
